SMILES strings stand for the structures.

The assay concerns MDA-MB-231. Briefly: Cytotoxicity against human MDA-MB-231 cells after 3 days by Celltiter-Glo assay. As to conditions: MDA-MB-231, 72 h. The format is functional, cell-based. (In general: ATP-based viability assays read luminescence as a measure of living cells.)
`C=C(C)[C@H]1CC=C2[C@@H](CC[C@]3(C)[C@@H]([C@@H](CCC=C(C)C)C(=O)O)CC[C@@]23C)[C@]1(C)CCC(=O)OC`: the IC50 is 55 µM.
With `C=C(C)[C@H]1CC=C2[C@@H](CC[C@]3(C)[C@@H]([C@@H](CCC=C(C)C)C(=O)O)CC[C@@]23C)[C@]1(C)CCC(=O)NCc1ccc(Br)cc1`, half-maximal inhibition (IC50) was put at 140 µM.
With `C=C(C)[C@H]1CC=C2[C@@H](CC[C@]3(C)[C@@H]([C@@H](CCC=C(C)C)C(=O)O)CC[C@@]23C)[C@]1(C)CCC(=O)O` the figure was 127 µM.
`C=C(C)[C@H]1CC=C2[C@@H](CC[C@]3(C)[C@@H]([C@@H](CCC=C(C)C)C(=O)OC)CC[C@@]23C)[C@]1(C)CCC(=O)OC` displayed an IC50 of 63.5 µM.
Regarding `CC[C@H](/C=C/[C@@H](C)[C@H]1CC[C@H]2[C@@H]3CC=C4C[C@@H](O)CC[C@]4(C)[C@H]3CC[C@]12C)C(C)C` [STIGMASTEROL], the IC50 stood at 564 µM.

What is called IC50 is the concentration needed to halve the response being measured. High values mean a need for much substance, low ones inhibition by little substance.

(Values after ChEMBL document CHEMBL4130449, “Bioactive Seco-Lanostane-Type Triterpenoids from the Roots of Leplaea mayombensis” (J Nat Prod, 2017).)
